The source of these data is patent US12109246B2, “Composition for the treatment and/or prevention of lower urinary tract symptoms” (SERELYS PHARMA S.A.M., priority 2019, dated 2024).

This experiment addresses T1, muscarinic M3 receptor (Homo sapiens, UniProt P20309).
T1 construct: using HEK293 cells which express the receptor endogenously; endogenous in cells; host or cells: HEK293
The experiment in a line: Antagonist activity on muscarinic M3 receptor, FLIPR Tetra calcium assay in HEK293 cells. Type of experiment: cell-based. The following applies: antagonist mode versus carbachol at its EC50, HEK293 cells, calcium fluorescence.

T1 sequence (P20309 whole entry): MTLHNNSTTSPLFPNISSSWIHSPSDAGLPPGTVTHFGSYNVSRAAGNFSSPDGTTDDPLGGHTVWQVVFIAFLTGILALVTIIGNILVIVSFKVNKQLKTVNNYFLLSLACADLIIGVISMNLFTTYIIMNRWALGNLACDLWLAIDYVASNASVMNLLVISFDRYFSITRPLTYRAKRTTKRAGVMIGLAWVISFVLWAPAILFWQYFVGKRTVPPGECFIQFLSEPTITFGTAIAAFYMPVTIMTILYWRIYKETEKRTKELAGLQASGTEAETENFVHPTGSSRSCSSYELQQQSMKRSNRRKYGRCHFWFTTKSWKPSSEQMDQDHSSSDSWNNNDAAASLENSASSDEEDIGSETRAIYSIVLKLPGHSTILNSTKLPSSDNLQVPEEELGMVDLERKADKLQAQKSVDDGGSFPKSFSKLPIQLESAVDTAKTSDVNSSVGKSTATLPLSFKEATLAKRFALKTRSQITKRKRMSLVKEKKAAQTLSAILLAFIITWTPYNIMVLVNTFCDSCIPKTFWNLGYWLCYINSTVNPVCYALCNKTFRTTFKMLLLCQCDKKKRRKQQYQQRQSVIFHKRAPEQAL

In the case of Vitamin E [Vitamin E (as in Example 1)], the IC50 (usually the concentration that gives 50% inhibition) was over 1 µg/mL.
